Results reported in US8309121B2, “Dermatological compositions comprising avermectin nanocapsules” (Galderma S.A., priority 2006, dated 2012).

Assays:
[1] = Solubility of ivermectin in various excipients; format: physicochemical
Source text: (§1) There are numerous excipients used in the formulation of emulsions or liposomes which result in degradation of ivermectin. The Table below presents the results of tests of stability and solubility of ivermectin in various excipients: […]

[2] = in ceteareth-25, ceteareth-6, PEG-8-distearate, PEG-8-stearate, PEG-660-OH-stearate, PEG-4000, polyoxyethylene-10, glycerol monostearate S/E, propylene glycol dicaprylate, cetearyl octanoate, polyglycerol-3-diolate, C18-C36 triglycerides, Gamma cyclodextrin, soybean lecithin, cholesterol, stearic acid; cited from earlier work
[3] = Stability of ivermectin in various excipients; format: physicochemical; conditions: for T 1 month 40° C. content / T 1 month Tambient content / T 3 months 40° C. content / T 3 months Tambient content: T0 in mg/g; for T 1 month 40° C. (% in brackets) / T 1 month Tambient (% in brackets) / T 3 months 40° C. (% in brackets) / T 3 months Tambient (% in brackets): relative to T0
Source text: as §1

[4] = cited from earlier work
[5] = in Labrafac Hydro WL1219 (caprylic/capric triglyceride PEG-4 esters)
[6] = in Mygliol 812 (medium-chain triglycerides of caprylic and capric acids)
[7] = in Solutol HS15 (PEG-15 hydroxystearate)
[8] = in Labrafac Hydro WL1219, 1 month
[9] = in Lipoid S75-3 + benzyl alcohol, 1 month
[10] = in Lipoid S75-3 + benzyl alcohol
[11] = in Ph90H + benzyl alcohol, 1 month

ivermectin
Solubility max ([1]; in Benzyl alcohol): 32.8 mg/g
Solubility max ([1]; in Benzyl benzoate): 44.2 mg/g
Solubility max ([1]; in Crodamol DA): 94.2 mg/g
Solubility max [1, 5]: 70 mg/g
Solubility max ([1]; in Miglyol 812): 17.9 mg/g
Solubility (in words) [1, 6]: relatively low solubility
Solubility max [1, 7]: 10.8 mg/g
Stability in lipophilic excipients (in words) [2]: degradation
Degradation by hydrogenated lecithins (in words) ([3]; hydrogenated lecithins, studies of Example 1): do not degrade
T 1 month 40° C. content ([3]; in Benzyl alcohol, 1 month): 9.7
T 1 month 40° C. (% in brackets) ([3]; in Benzyl alcohol, 1 month): (98%)
T 1 month Tambient content ([3]; in Benzyl alcohol, 1 month): 9.8
T 1 month Tambient (% in brackets) ([3]; in Benzyl alcohol, 1 month): (99%)
T0 content ([3]; in Benzyl alcohol): 9.9 mg/g
Stability (in words) ([3]; in Crodamol DA): Stable over 1 month
T0 content [3, 5]: 9.0 mg/g
T 1 month 40° C. content [3, 8]: 6.7
T 1 month 40° C. (% in brackets) [3, 8]: (75%)
T 1 month Tambient content [3, 8]: 8.5
T 1 month Tambient (% in brackets) [3, 8]: (95%)
T 3 months 40° C. content ([3]; in Labrafac Hydro WL1219): 4.2
T 3 months 40° C. (% in brackets) ([3]; in Labrafac Hydro WL1219): (47%)
T 3 months Tambient content ([3]; in Labrafac Hydro WL1219): 6.3
T 3 months Tambient (% in brackets) ([3]; in Labrafac Hydro WL1219): (70%)
T0 content ([3]; in Labrasol (PEG-8 caprylic/capric glycerides)): 8.1 mg/g
T 1 month 40° C. content ([3]; in Labrasol, 1 month): 7.9
T 1 month 40° C. (% in brackets) ([3]; in Labrasol, 1 month): (98%)
T 1 month Tambient content ([3]; in Labrasol, 1 month): 8.1
T 1 month Tambient (% in brackets) ([3]; in Labrasol, 1 month): (100%)
T 3 months 40° C. content ([3]; in Labrasol): 5.6
T 3 months 40° C. (% in brackets) ([3]; in Labrasol): (69%)
T 3 months Tambient content ([3]; in Labrasol): 8.1
T 3 months Tambient (% in brackets) ([3]; in Labrasol): (100%)
T 1 month 40° C. content [3, 9]: 9.5
T 1 month 40° C. (% in brackets) [3, 9]: (101%)
T 1 month Tambient content [3, 9]: 9.5
T 1 month Tambient (% in brackets) [3, 9]: (101%)
T 3 months 40° C. content [3, 10]: 9.7
T 3 months 40° C. (% in brackets) [3, 10]: (103%)
T 3 months Tambient content [3, 10]: 9.2
T 3 months Tambient (% in brackets) [3, 10]: (98%)
T0 content [3, 10]: 9.4 mg/g
T 1 month 40° C. content ([3]; in Miglyol 812, 1 month): 8.2
T 1 month 40° C. (% in brackets) ([3]; in Miglyol 812, 1 month): (94%)
T 1 month Tambient content ([3]; in Miglyol 812, 1 month): 8.3
T 1 month Tambient (% in brackets) ([3]; in Miglyol 812, 1 month): (95%)
T 3 months 40° C. content ([3]; in Miglyol 812): 8.4
T 3 months 40° C. (% in brackets) ([3]; in Miglyol 812): (96%)
T 3 months Tambient content ([3]; in Miglyol 812): 8.3
T 3 months Tambient (% in brackets) ([3]; in Miglyol 812): (96%)
T0 content ([3]; in Miglyol 812): 8.7 mg/g
Stability (in words) [3, 6]: not perfectly stable
T0 content ([3]; in Ph90H (Phospholipon 90H) + benzyl alcohol): 9.25 mg/g
T 1 month 40° C. content [3, 11]: 9.5
T 1 month 40° C. (% in brackets) [3, 11]: (103%)
T 1 month Tambient content [3, 11]: 9.7
T 1 month Tambient (% in brackets) [3, 11]: (105%)
T0 content [3, 7]: 9.8 mg/g
degradation at 1 month ([3]; in Solutol HS15, 1 month): 28%
T 1 month 40° C. content ([3]; in Solutol HS15, 1 month): 7.1
T 1 month 40° C. (% in brackets) ([3]; in Solutol HS15, 1 month): (72%)
T 1 month Tambient content ([3]; in Solutol HS15, 1 month): 9.4
T 1 month Tambient (% in brackets) ([3]; in Solutol HS15, 1 month): (95%)
Stability in a hydrophilic medium (in words) ([4]; hydrophilic medium): degraded
solubility in water ([4]; water): 5 µg/mL
